Experimental data taken from patent US20150374709A1, “TETRA-SUBSTITUTED NDGA DERIVATIVES VIA ETHER BONDS AND CARBAMATE BONDS AND THEIR SYNTHESIS AND PHARMACEUTICAL USE” (ERIMOS PHARMACEUTICALS LLC, priority 2006, published 2015).
Values joined by “and” are separate entries in the source; they are usually repeats but may differ in a detail not shown here. Identical values can stand only once. Counter-ions that a name gives are not always drawn. Like-named read-outs stand apart in the source and are kept apart here.

What was measured:
[1] = tested on: apoptosis of cells based on DNA fragmentation; experiment: TiterTACS DNA fragmentation apoptosis assay; assay type: cell-based; conditions: TiterTACS apoptosis detection
Procedure: Antiproliferative activity is determined using the TiterTACS® Apoptosis Detection Kit (R&D Systems Inc., Minneapolis, Minn. USA) relating to apoptosis of cells based on DNA fragmentation, and by the ELISA VEGF ([…]) and survivin assays.
In the DNA fragmentation assay, in situ detection of apoptosis is specifically achieved with TiterTACS® 96-well Apoptosis Detection kit, Catalog No. TA600 (R&D Systems, Inc.). The TiterTACS® assay provides quantification of apoptosis in cultured cells without direct counting of labeled cells using colorimetric detection. Cells are treated with the test compounds, left untreated as experimental negative controls, or treated with TACS nuclease as positive controls. TACS nuclease allows positive controls to be generated for each experimental system: a brief treatment of cells with the TACS nuclease prior to labeling generates DNA breaks in every cell, providing an appropriate positive control specific for the system under study. The TdT enzyme that catalyzes the addition of dNTPs to DNA fragments allows for colorimetric detection of at 450 nm by using a streptavidin-HRP solution followed by the TACS-Sapphire substrate. A high absorbance at 450 nm is indicative of apoptosis in the cells. Treated cells are compared to untreated cells and to nuclease-cleaved cells to assess the extent of apoptosis.

[2] = tested on: HeLa (cervical adenocarcinoma); experiment: MTS cell viability assay, HeLa; assay type: cell-based; conditions: Homo sapiens, HeLa, read-out: HeLa IC50
Description: (§1) Studies performed regarding cytotoxicity included the well-known MTS, Trypan Blue and MTT protocols. The MTS studies were done using the CellTiter 96®AQueous One Solution Cell Proliferation Assay (Promega Corporation, Madison, Wis. USA). Metabolically active, namely viable, cells turn MTS, a tetrazolium compound (3-(4,5-dimethylthiazol-2-yl)-5-(3-carboxymethoxyphenyl)-2-(4-sulfophenyl)-2H-tetrazolium, inner salt) into colored formazan, which is soluble in tissue culture medium. The measurement of the absorbance of the formazan is read at 490 nm. The ready to use reagent is added directly to the cells in media in 96-well plates, incubated 1-4 hours and the results are recorded by the plate reader. The IC50 is estimated by graphing the gathered data. The IC50 is the concentration of the tested material that inhibits 50% of growth or viability of the tested material compared to a control.
(§2) Three cell lines obtained from ATCC and maintained as directed by ATCC were tested: HeLa (cervical adenocarcinoma), A549 (lung carcinoma), and COS-7 (SV40 transformed monkey kidney). Studies of these cell lines are considered to be indicative of the effect of tested substances on mammalian, including human, diseases.
(§3) All compounds were dissolved in DMSO and DMSO is used as the placebo. The samples were first dissolved into 10 mM dilutions in DMSO and then diluted further to 5, 1, 0.5, 0.1, 0.05, and 0.01 mM solutions. These solutions were added to the media at a 1% concentration (1 μl to 100 μl media) to treat the cells with 100, 50, 10, 5, 1, 0.5, and 0.1 μM of the compound. […] Solutions were checked before use for precipitation, especially the 10 mM solutions. If there was precipitation, they were warmed 65° C. and added to warmed media.
(§4) Wells on a 96-well plate were seeded with 1.5-8×10^4 cells in 100 μl media and incubated overnight. The outside wells of the plate were filled with 200 μl sterile, deionized (DI) water to curb media evaporation. After 24 hours, test chemicals were prepared in media at a concentration of 1% media volume. The test sample media were added, mixing with pipette before adding 100 μl per well. Media was added to the “Media Only” wells. The well plate and its contents were incubated for 24-72 hours, depending on the study conducted. On the thy of the MTS assay, the MTS reagent was removed from the refrigerator and brought to room temperature. Using the multichannel pipette, 20 μl of the MTS reagent was added to each well and incubated for one to four hours. The plate was read at 490 nm with a reference wavelength of 690 nm after one hour in the incubator thereafter until the blank wells were at about 0.2 OD. The results were then scanned into a Microsoft® Excel® template designed to perform all necessary calculations whim data are entered. The data were checked for statistical errors; data points that are within 10% of the mean of the data points for that group were included. The average of the blanks (“Media Only”) were subtracted and the data were inserted into a chart that represents growth response, treated/untreated.

[3] = tested on: survivin; experiment: ELISA survivin assay (cell lysates); assay type: cell-based, Human
Description: Survivin is an inhibitor of apoptosis that is abundantly expressed in many human cancers, but not in normal adult human tissue, and is considered a possible modulator of the terminal effector phase of cell death/survival. Survivin is expressed in G2-M in a cell cycle-dependent manner, binding directly to mitotic spindle microtubules. […] Phosphorylated survivin acts on the caspase pathway to suppress the formation of caspase-3 and caspase-9, thereby inhibiting apoptosis. Thus, compounds that reduce the expression of survivin will be expected to increase the rate of apoptosis and cell death.
Effects of the tested compounds on survivin were studied following manufacturer's instructions using the Surveyor™ IC Human Total Survivin Immunoassay, Catalog No. SUV647 (R&D Systems, Inc.). Cell lysates were analyzed for survivin protein content. The kit includes a plate coated with an antibody specific for survivin and a biotinylated antibody reagent that recognizes survivin bound to the plate. The plate is read on a plate reader set at 450 nm and corrected at 540 nm. A protein assay according to the Bradford method (Bradford, M. 1976, Anal Biochem 72: 248-254) was used to quantify and normalize the samples according to total protein content. Results from a standard curve enable the user to quantify the amount of survivin protein in each sample.

[4] = tested on: VEGF; experiment: ELISA VEGF assay (DFO-treated cells); assay type: cell-based, Human
Description: ELISA (Enzyme-Linked ImmunoSorbent Assay) VEGF studies were done following manufacturer's instructions using the Endogen® Human VEGF ELISA kit, Catalog No. […] (Pierce Biotechnology, Inc., Rockford, Ill. USA). Hypoxic conditions are created for the cells by treating them with desferrioxamine (DFO), which chelates iron and causes the cells to secrete VEGF into the media. The supernatant (media) was removed and frozen for testing, and the cells were counted with the Trypan Blue assay so that the results can be normalized to cell count. The VEGF is measured with a sandwich ELISA that captures the protein in media on an antibody-coated microplate, and then uses a biotinylated antibody reagent to detect the protein. Results from a standard curve enable the user to quantify the amount of protein in each sample.

[5] = tested on: A549 (lung carcinoma); experiment: MTS cell viability assay, A549; assay type: cell-based; conditions: Homo sapiens
Description: as §1, §2, §3, §4

[6] = tested on: Caco-2 cell monolayers; experiment: Caco-2 monolayer bidirectional permeability; assay type: in vitro ADME, human
Procedure: (§5) Permeability studies were conducted by an outside contractor on behalf of the assignee of the present invention and application to determine the permeability of Compound A through Caco-2 monolayers. An important factor of oral bioavailability is the ability of e compound to be absorbed in the small intestine. Measurement of drug apparent permeability (Papp) through cell monolayers is well correlated with human intestinal absorption, and several mammalian cell lines, including Caco-2, LLC-PK1 and MDCK, are appropriate for this measurement (Artursson, P. et al., Correlation between oral drug absorption in humans and apparent drug permeability coefficients in human intestinal epithelial (Caco-2) cells. Biochem Biophys Res Comm 175:880-885 (1991); Stewart. B. H., et al., Comparison of intestinal permeabilities in multiple in vitro and in situ models: relationship to absorption in humans. Pharm Res 12:693 (1995)). P-Glycoprotein (P-gp, encoded by MDR1) is a member of the ABC transporter super family and is expressed in the human intestine, liver and other tissues. Intestinal expression of P-gp may affect the oral bioavailability of drug molecules that are substrates for this transporter. Interaction with P-gp can be studied using direct assays of drug transport in polarized cell systems such as Caco-2 cell monolayers, and human P-gp cDNA-expressing LLC-PK1 and MDCK cell monolayers. Caco-2 cells (human adenocarcinoma colonic cell line Caco-2, ATCC Cat. No. […] The cells were cultured for 21-25 days with media replacement every 3-4 days. Monolayer integrity was evaluated by pre-experimental trans-epithelial electrical resistance (TEER) measurements and post-experimental lucifer yellow A to B flux determinations. […] Receiver solution was prepared by adding 1% DMSO to transport buffer. The test solution was of Compound A in DMSO in transport buffer at a final DMSO concentration of 1%. […] The donor and receiver solutions were added to the apical or basolateral chambers of the monolayers (depending on the direction of transport to be measured). The monolayers were incubated on an orbital shaker (50 rpm) at 37° C., with ambient humidity and CO2. After 90 minutes, samples from the donor and receiver chambers were removed for analysis. […] Duplicate monolayers were used for each incubation. Samples were analyzed by LC/MS/MS using peak area ratios to an internal standard. Test article concentrations were calculated based on the peak area ratios obtained for appropriate dilutions of the donor solution containing the test article at the nominal concentration in transport buffer. Samples were diluted as appropriate to ensure that the response was within the linear range of the mass spec detector. Comparator and control samples were analyzed by liquid scintillation counting. Lucifer yellow concentrations were determined using a fluorescence plate reader.

[7] = Caco-2 monolayer bidirectional permeability; assay type: in vitro ADME, human; conditions: human, Caco-2, pH 7.4; control at 5 μM, 90 minutes, duplicate monolayers
Procedure: as §5

[8] = read-out: Survivin IC50; survivin protein in cell lysates, normalized to total protein
[9] = survivin protein in cell lysates, normalized to total protein; read-out: Survivin IC50
[10] = VEGF released into media by DFO-treated cells, normalized to cell count; read-out: VEGF IC50
[11] = A549, MTS assay, read-out: A549 IC50

With `C[C@H](Cc1ccc(OCCCCN2CCN(C)CC2)c(OCCCCN2CCN(C)CC2)c1)[C@@H](C)Cc1ccc(OCCCCN2CCN(C)CC2)c(OCCCCN2CCN(C)CC2)c1` [Compound O, 1,4-bis{3,4-bis[4-(N-methyl-piperazino-N′-yl)butoxyl]phenyl}-2,3-dimethyl-(2R,3S)-butane octa-hydrochloride] the DNA fragmentation [1] was “Positive”, the IC50 [2] was 10 to 30 µM and the IC50 [3, 8] was 14 µM. The IC50 ([4]; read-out: VEGF IC50; VEGF released into media by DFO-treated cells, normalized to cell count) was 18 µM and the IC50 ([5]; A549, read-out: A549 IC50) was 8 to 9 µM.

With `CC(C)NCC(O)COc1cccc2ccccc12` (centres unmarked) [propranolol, reference compound] the “Mass balance mean A to B” value ([6]; human, Caco-2, 90 min, pH 7.4) was 71%.

In the case of `C[C@H](Cc1ccc(OCCCCN2CCOCC2)c(OCCCCN2CCOCC2)c1)[C@@H](C)Cc1ccc(OCCCCN2CCOCC2)c(OCCCCN2CCOCC2)c1` [Compound M, 1,4-bis{3,4-bis[4-(N-morpholino)butoxyl]phenyl}-2,3-dimethyl-(2R,3S)-butane], the DNA fragmentation [1] is reported as “Positive”, the IC50 ([2]; MTS assay) is reported as 5 to 10 µM and the IC50 [3, 9] is reported as 5 µM. The IC50 [4, 10] was ~9 µM and 9 µM and the IC50 [5, 11] was 1 to 5 µM.

With `C[C@H](Cc1ccc(OCCN(C)C)c(OCCN(C)C)c1)[C@@H](C)Cc1ccc(OCCN(C)C)c(OCCN(C)C)c1` [Compound G, 1,4-bis{3,4-bis(2-(N,N′-dimethylamino)-ethoxy)phenyl}-2,3-dimethyl-(2R,3S)-butane] the IC50 [2] was 15 to 20 µM, the IC50 ([4]; read-out: VEGF IC50; VEGF released into media by DFO-treated cells, normalized to cell count; listed as G in H2O) was 25 µM and the IC50 ([5]; A549, read-out: A549 IC50) was 15 to 20 µM.

In the case of `OC[C@@H](O)[C@@H](O)[C@H](O)[C@H](O)CO` [mannitol, reference compound], the “Mass balance mean A to B” value ([6]; human, Caco-2, 90 min, pH 7.4) is reported as 96%.

In the case of `C[C@H]1O[C@@H](O[C@H]2[C@@H](O)C[C@H](O[C@H]3[C@@H](O)C[C@H](O[C@H]4CC[C@@]5(C)[C@H](CC[C@@H]6[C@@H]5C[C@@H](O)[C@]5(C)[C@@H](C7=CC(=O)OC7)CC[C@]65O)C4)O[C@@H]3C)O[C@@H]2C)C[C@H](O)[C@@H]1O` [digoxin, reference compound], the Papp B→A at 90 min [7] is reported as 124 nm/s, the “Papp mean A to B” value ([6]; comparators/control at the concentration in the row (5 or 50 μM), 90 minutes, duplicate monolayers) is reported as 22.8 nm/s and the “Mass balance mean A to B” value ([6]; comparators/control, 90 minutes) is reported as 73%. The “Mass balance mean B to A” value ([6]; control, 90 minutes) was 79%.

For `C[C@H](Cc1ccc(OCCCCN2CCCCC2)c(OCCCCN2CCCCC2)c1)[C@@H](C)Cc1ccc(OCCCCN2CCCCC2)c(OCCCCN2CCCCC2)c1` [Compound D, 1,4-bis{3,4-bis[4-(N-piperidino)butoxyl]phenyl}-2,3-dimethyl-(2R,3S)-butane tetrakis-hydrochloride salt], the DNA fragmentation [1] was “Positive”, the IC50 ([2]; MTS assay) was 5 to 10 µM and the IC50 [3, 9] was ~4 µM and 4 µM. The IC50 [4, 10] was ~9 µM and 9 µM and the IC50 [5, 11] was 1 to 5 µM.

For `C[C@H](Cc1ccc(OCCN(C)C)c(OCCN(C)C)c1)[C@@H](C)Cc1ccc(OCCN(C)C)c(OCCN(C)C)c1` [Compound H, 1,4-bis{3,4-bis(2-(N,N′-dimethylamino)-ethoxy)phenyl}-2,3-dimethyl-(2R,3S)-butane tetrakishydrochloride salt], the DNA fragmentation [1] was “Positive”, the IC50 [3, 8] was 10 µM and the IC50 ([4]; read-out: VEGF IC50; VEGF released into media by DFO-treated cells, normalized to cell count; listed as H in H2O) was 23 µM.

`C[C@H](Cc1ccc(OCCF)c(OCCF)c1)[C@@H](C)Cc1ccc(OCCF)c(OCCF)c1` [Compound K, 1,4-bis[3,4-bis(2-fluoro-ethoxyl)phenyl]-2,3-dimethyl-(2R,3S)-butane] gave an IC50 ([2]; MTS assay) of over 100 µM and an IC50 [5, 11] of over 100 µM.
